Reference: patent US20130045162A1, “DELIVERY SYSTEM FOR SPECIFICALLY TARGETING CANCER CELLS AND METHOD OF USE THEREOF” (MOREHOUSE SCHOOL OF MEDICINE, priority 2011, published 2013)
Where two headings read alike, the source gives them in different places.

Tests used:
[1] = test system: PC3-luc and PTEN-CaP2-luc tumor; assay: Example 5 intratibia PC3-luc / PTEN-CaP2-luc tumor model; assay type: in vivo, mice; conditions: intravenous
Description: To mimic advanced (bone metastasis) PCa, NIH-III or B6 male mice receiving vitamin D-deficient or normal diets are injected in left tibia with PC3-luc or PTEN-CaP2-luc cells, respectively. […] Microscopic and morphometric analysis determine the significance of treatments on prostate tumor apoptosis and change in the frequency or survival of PCa cells. […] Blood samples are used to determine serum docetaxel and oxaliplatin PK/PD by mass spectrometry.
NIH-III and B6 male mice are purchased from Jackson Laboratories. Animals are housed and maintained in microbial isolator cages under conventional housing conditions at the Morehouse School of Medicine's animal facility. The guidelines proposed by the committee for the Care of Laboratory Animal Resources Commission of Life Sciences—National Research Council are followed to minimize animal pain and distress. Eight to ten week old mice are injected in the right tibia with 10^6 PTEN-P2-luc (matched benign), PTEN-CaP2-luc (prostate adenocarcinoma), or PC3-luc cells. To assess the affects of hormone ablation on cytotoxic drug or PBM nanoparticle susceptibility, another group of mice is castrated after prostate tumor detection.

[2] = mouse, in vivo
Description: (§3) To mimic advanced (bone metastasis) PCa in ERCC1 variant individuals, B6 and B6.Xpc^−/− mice are injected in left tibia PTEN-CaP2-luc cells. Tumor progression is followed non-invasively in non-castrated mice using our Caliper/Xenogen IVIS-100 imaging system. After tumors emit luminescence >10^5 photons/sec/cm^2, one set of mice is castrated (i.e., to mimic androgen ablation) and the second set is not. […] Mice are imaged every week to monitor tumor progression/regression. When tumors in negative control (saline vehicle treated only) exceed 10^8 photons/sec/cm^2, groups in each set are sacrificed. […] The number and activity of peripheral, lymph node and tumor-associated lymphocytes are isolated and CD4^+ T cells affinity purified and intracellularly and surface stained for flow cytometry analysis of Th1, Th2, Th17, and cell frequency as before. Specifically, the proliferation of purified T lymphocytes after CD3 plus CD28 stimulation with or without FR4 to access Th1/Th2 cell proliferation as before. Along with weekly bioluminescence imaging, blood chemistry and peripherial blood leukocyte subpopulations are monitored to evaluate tumor- or drug-associated toxicities that may be associated with Xpc deficiency.

[3] = test system: PTEN-CaP2-luc tumor; assay: Example 7 PTEN-CaP2-luc tumor in B6 and B6.Xpc−/− mice; assay type: in vivo
Description: as §3

[4] = test system: spontaneous PCa in PBcre4+cPten−/− luc+ and PBcre4+cPten−/− luc+ cav1+ mice; assay: Example 6 spontaneous prostate tumor model (cPten−/− luc mice); assay type: in vivo; conditions: for metastatic lesions: alone or encapsulated
Excerpt: PBM nanoparticle effects on spontaneous tumor and Treg cell development are examined using cPten^−/−PBcre4^+luc^+ or cPten^−/−PBcre4^+luc^+cav1^+ (castrated or noncastrated) mice. Pten^floxed/floxedluc^+ without the Cre gene, which serve as negative tumor controls, and male cPten^−/− PBcre4^+luc^+ or cPten^−/−PBcre4^+luc^+cav1^+ (castrated or noncastrated) mice are imaged every week during PCa development from murine PIN (6 weeks of age), invasive adenocarcinoma (>9 weeks of age), and metastatic lymph node, lung and possibly bone at 12 weeks of age. After 9 weeks of age, tumors are allowed to progress to a net increase of 10^5 photons/sec/cm^2 from luminescence detected in mice <9 weeks of age. A set of mice is castrated to study androgen-independent hormone refractory PCa and another set is not castrated to further study the progression of PTEN-mediated PCa with androgens. […] Microscopic and morphometric analysis determine the significance of treatments on prostate tumor apoptosis and change in the frequency or survival of secretory luminal, basal, neuroendocrine and proliferating PCa cells. […] The proliferation of purified T lymphocytes is measured after CD3 plus CD28 stimulation (i.e., incubation on antibody-coated plates) with or without FR4 to assess Th1/Th2 cell proliferation. […]
Despite being homozygous for Pten gene deletion, the individual PBcre4^+ cPten^−/− luc^+ and PBcre4^+ cPten^−/− luc^+ cav1^+ mice will have different copies of active luciferase (L) gene. The copy number of trans L genes are determined and confirmed by multiplex polymerase chain reaction amplification and Southern blot analysis to insure the number of L genes responsible for luciferase will not change from experiment to experiment. […]

[5] = cited from earlier work
[6] = Example 7 systemic toxicities in B6 and B6.Xpc−/− mice; conditions: B6.Xpc−/− mice compared to B6 mice
Description: as §3

[7] = target: FR1 (Homo sapiens, UniProt P15328); conditions: read-out: affinity for FR1; cited from earlier work
[8] = target: FR2 (Homo sapiens, UniProt P14207); conditions: read-out: affinity for FR2; cited from earlier work
[9] = test system: PrEC (primary prostatic epithelial cells); assay: PrEC apoptosis, ImageStream (TUNEL/DRAQ5); assay type: cell-based; conditions: 20 uM, 1 hour, wash, 48 hours
Description: (§1) DU145 (prostate cancer cell line) and PrEC (primary prostatic epithelial cells) cells were treated with cisplatin solution or cisplatin-containing and cancer cell-binding peptides (I, II, III, and IV)- or folate-conjugated polycaprolactone-coated PBM nanoparticles, or uncoated nanoparticles. […] Apoptotic cells were identified using two standard image based features from the IDEAS package: Area and Spot Small Total. Condensed apoptotic nuclei have lower nuclear area value as compared to live cells.

[10] = test system: PCa cells (PC3 and PTEN-CaP2); assay: PCa cell death / apoptosis in vitro; assay type: cell-based, human; mouse; conditions: 20 μM
[11] = test system: MDA-MB-231-Luc xenografts; assay: tumor regression in MDA-MB-231-luc tumor-bearing mice; assay type: in vivo; conditions: 8 mg/kg/week, intravenous injection
[12] = test system: normal prostatic epithelial cells (PrEC and RWPE-1); assay: normal prostatic epithelial cell death in vitro; assay type: cell-based; conditions: 20 μM
[13] = test system: PC3-luc tumor; assay: tumor regression in PC3-luc tumor-bearing mice; assay type: in vivo; conditions: 8 mg/kg/week, intravenous injection
[14] = test system: normal (primary) breast epithelial cells; assay: normal breast epithelial cell death / apoptosis in culture; assay type: cell-based; conditions: 20 μM, after 24 hr of culture
Excerpt: (§2) The folate coated PBM nanoparticles are further loaded with docetaxel, carboplatin, or cisplatin. […] However, PBM nanoparticles containing 10× less chemotherapeutic agent were taken up and induced the same level of BrCa cell apoptosis as cisplatin, docetaxel, or carboplatin solution, respectively, but not primary breast epithelial cells. […] Accordingly, the novel PBM nanoparticles of the present application enhance BrCa therapy efficacy, reduce toxicities, and increase breast tumor immunity.

[15] = test system: DU145 (prostate cancer cell line); assay: DU145 apoptosis, ImageStream (TUNEL/DRAQ5); assay type: cell-based; conditions: 20 uM, 1 hour, wash, 48 hours
Description: as §1

[16] = parameters: species or system mice; conditions: mouse, in vivo
Description: Serum is collected at sacrifice and urea N2, creatine, P, Ca, Na, K, Cl, bicarbonate, alkaline phosphatase, alanine transaminase (ALT), aspartate aminotransferase (AST), creatine kinase (CK), cholesterol, total bilirubin, total protein, albumin, globulin, albumin/globulin ratio, glucose and amylase are measured.

[17] = test system: BrCa cells (MCF-7, MDA-MB-231, and 4T1); assay: BrCa cell death / apoptosis in culture; assay type: cell-based; conditions: 20 μM, after 24 hr of culture
Excerpt: as §2

[18] = optimal dose 10 mg/kg/week, both B6 and B6.Xpc−/− mice

FR2, sequence (P14207 17-230): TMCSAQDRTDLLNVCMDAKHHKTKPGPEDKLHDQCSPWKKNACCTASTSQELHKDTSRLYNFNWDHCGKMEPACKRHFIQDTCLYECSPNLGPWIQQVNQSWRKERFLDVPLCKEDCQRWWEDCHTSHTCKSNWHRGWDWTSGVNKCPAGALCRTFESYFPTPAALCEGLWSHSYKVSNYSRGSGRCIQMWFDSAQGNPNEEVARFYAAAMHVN
FR1, sequence (P15328 25-234): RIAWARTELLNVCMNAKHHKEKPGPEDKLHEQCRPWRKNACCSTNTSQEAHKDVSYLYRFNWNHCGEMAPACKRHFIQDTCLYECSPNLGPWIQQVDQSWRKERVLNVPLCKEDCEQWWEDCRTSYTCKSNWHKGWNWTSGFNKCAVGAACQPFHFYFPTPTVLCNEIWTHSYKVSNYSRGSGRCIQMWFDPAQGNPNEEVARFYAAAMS

With `CC(=O)O[C@@]12CO[C@@H]1C[C@H](O)[C@@]1(C)C(=O)[C@H](O)C3=C(C)[C@@H](OC(=O)[C@H](O)[C@@H](NC(=O)OC(C)(C)C)c4ccccc4)C[C@@](O)([C@@H](OC(=O)c4ccccc4)[C@H]21)C3(C)C` [docetaxel] the tumor regression ([1]; optimal dose 10 mg/kg/week) was “tumor regression”, the tumor regression ([1]; suboptimal dose 0.1 mg/kg/week) was “not suboptimal” and the “toxicities (elevated AST & ALT, hypocalcemia and hypoglycemia)” value [2] was “significantly higher toxicities”. The tumor regression [3, 18] was “tumor regression”, the tumor regression ([3]; suboptimal dose 0.1 mg/kg/week) was “not suboptimal” and the metastatic lesions [4] was “fewer metastatic lesions”.

In the case of `COc1cc(/C=C/C(=O)CC(=O)/C=C/c2ccc(O)c(OC)c2)ccc1O` [Free curcumin, diferuloylmethane], the solubility in water [5] is given as “completely insoluble in water”.

For `O=C1[O][Pt]2([NH][C@@H]3CCCC[C@H]3[NH]2)[O]C1=O` [oxaliplatin], the “toxicities (elevated AST & ALT, hypocalcemia and hypoglycemia)” value [6] was “significantly higher toxicities”, the tumor regression ([1]; optimal dose 10 mg/kg/week) was “tumor regression” and the tumor regression ([1]; suboptimal dose 0.1 mg/kg/week) was “not suboptimal”. For the same compound, the tumor regression [3, 18] was “tumor regression”, the tumor regression ([3]; suboptimal dose 0.1 mg/kg/week) was “not suboptimal” and the metastatic lesions [4] was “fewer metastatic lesions”. The neuroendocrine differentiation ([4]; mouse, in vivo) was “reduced”.

For `CN1c2c(nc(N)[nH]c2=O)NC[C@@H]1CNc1ccc(C(=O)N[C@@H](CCC(=O)O)C(=O)O)cc1` [6S 5-methyltetrahydrofolate], the Kd [7] is listed as 55 nM and the Kd [8] is listed as 1 nM.

For `[NH2][Pt]([NH2])([Cl])[Cl]` [Cisplatin solution, cisplatin], the “apoptosis of PrEC cells” value [9] was “apoptosis of both DU145 and PrEC cells”, the cell death [10] was > 90% and the tumor regression [11] was “significant (and similar) tumor regression”. For the same compound, the cell death [12] was > 90%, the tumor regression [13] was “significant (and similar) tumor regression” and the cell death [14] was > 90%. The “apoptosis of DU145 cells” value [15] was “apoptosis of both DU145 and PrEC cells”, the Albumin [16] was 4.2 ± 0.6 g/dL and the Albumin/Globulin ratio [16] was 4.22 ± 2.41. The “Alk Phos” value [16] was 160 ± 34.64 U/L, the Amylase [16] was 2062 ± 371.44 U/L and the Bicarbonate [16] was 10.2 ± 1.04 mmol/fL. For the same compound, the CK [16] was 3975 ± 45 U/L, the Calcium [16] was 1.2 ± 0 mg/dL and the Cholestrol [16] was 84 ± 10.39 mg/dL. The Cl [16] was 106 ± 3.46 mEq/l, the Creatinin [16] was 0.8 ± 0.35 mg/dL and the Globulins [16] was 1.2 ± 0.6 g/dL. It also gave a Glucose [16] of 52 ± 17.32 mg/dL, a K [16] of 9.2 ± 012 mEg/l and a Na [16] of 152 ± 3.46 mEq/l. For the same compound, the Phosphorus [16] was 72 ± 0 mg/dL, the “Total Bilirubin” value [16] was 0.6 ± 0 mg/dL and the Total protein [16] was 5 ± 0.35 g/dL. For the same compound, the “Urea N2” value [16] was 36 ± 0 mg/dL and the cell death [17] was > 90%.
